A short description of the data set: activity coefficient (dimensionless); of the first substance listed, at infinite dilution; xn = mol fraction of the nth substance listed. Conditions: 101.3 kPa, Liquid, Differential ebulliometry, x1 = 0.

The structures appear in SMILES notation. Numbers after ± are expanded uncertainties.

Consider `C1CCCCC1` [cyclohexane] + NC1CCCCC1, for which the activity coefficient by setting is: (373.15 K) 1.24 ± 0.15; (393.15 K) 1.18 ± 0.14.

Take `NC1CCCCC1` [cyclohexylamine] + C1CCCCC1: the activity coefficient is, setting by setting: (333.15 K) 1.77 ± 0.21; (348.15 K) 1.49 ± 0.18.

With `NC1CCCCC1` [cyclohexylamine] + CC1CCCCC1, the activity coefficient is, setting by setting: (353.15 K) 1.87 ± 0.22; (373.15 K) 1.64 ± 0.2; (393.15 K) 1.48 ± 0.18.

Consider `NC1CCCCC1` [cyclohexylamine] + CCC1CCCCC1, for which the activity coefficient is 1.52 ± 0.18 (353.15 K), 1.45 ± 0.17 (373.15 K) and 1.36 ± 0.16 (393.15 K).

Consider `CCC1CCCCC1` [ethylcyclohexane] + NC1CCCCC1, for which the activity coefficient amounted to 1.57 ± 0.19 (353.15 K), 1.45 ± 0.17 (373.15 K) and 1.42 ± 0.17 (393.15 K).

`CC1CCCCC1` [methylcyclohexane] + NC1CCCCC1: the activity coefficient stood at 1.19 ± 0.14 (333.15 K), 1.26 ± 0.15 (353.15 K) and 1.25 ± 0.15 (373.15 K).

Source of the values: the NIST ThermoML archive (doi:10.1016/j.fluid.2011.09.010).
